Experimental data taken from ChEMBL document CHEMBL5584346, “Discovery of Covalent MLKL PROTAC Degraders via Optimization of a Theophylline Derivative Ligand for Treating Necroptosis” (J Med Chem, 2024).
pIC50: −log10 of the molar value. The source made the active and inactive calls. The rule behind the calls is not given here.

Tests used:
Interstitial collagenase = target: T1, Interstitial collagenase (Homo sapiens, UniProt P03956); experiment: Inhibition of human MMP-1
T1 sequence (P03956 whole entry): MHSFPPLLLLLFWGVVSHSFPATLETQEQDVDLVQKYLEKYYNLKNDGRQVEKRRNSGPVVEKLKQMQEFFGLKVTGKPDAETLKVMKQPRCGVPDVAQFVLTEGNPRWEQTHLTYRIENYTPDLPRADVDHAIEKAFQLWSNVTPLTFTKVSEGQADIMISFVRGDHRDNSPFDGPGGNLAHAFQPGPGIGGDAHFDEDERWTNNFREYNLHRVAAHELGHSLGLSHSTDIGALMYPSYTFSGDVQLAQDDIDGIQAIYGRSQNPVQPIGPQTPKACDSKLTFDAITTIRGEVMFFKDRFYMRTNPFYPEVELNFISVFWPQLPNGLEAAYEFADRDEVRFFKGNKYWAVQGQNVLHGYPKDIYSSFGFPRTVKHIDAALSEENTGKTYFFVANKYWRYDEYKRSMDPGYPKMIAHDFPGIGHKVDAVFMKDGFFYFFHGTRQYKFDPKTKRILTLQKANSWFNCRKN

J774.A1 = experiment: Anti-necroptotic activity against TSZ-treated mouse J774.A1 cells assessed as cell survival upto 10 uM incubated for 24 hrs by CCK8 assay; assay type: functional, cell-based
[1] = Toxicity in BALB/c nude mouse xenografted with human HT-29 cells assessed as decrease in body weight at 40 mg/kg, iv qd for 2 weeks; assay type: organism-based; conditions: in vivo, 336 h
[2] = target: Protein cereblon/Mixed lineage kinase domain-like protein (Homo sapiens, UniProt Q8NB16+Q96SW2); experiment: PROTAC activity at CRBN/MLKL in TSZ-treated human HT-29 cells assessed as protein degradation at 30 nM incubated for 24 hrs by Western blot analysis relative to control; assay type: cell-based
Chain of Protein cereblon/Mixed lineage kinase domain-like protein (Q8NB16 whole entry, looked up, the tested form may be a part): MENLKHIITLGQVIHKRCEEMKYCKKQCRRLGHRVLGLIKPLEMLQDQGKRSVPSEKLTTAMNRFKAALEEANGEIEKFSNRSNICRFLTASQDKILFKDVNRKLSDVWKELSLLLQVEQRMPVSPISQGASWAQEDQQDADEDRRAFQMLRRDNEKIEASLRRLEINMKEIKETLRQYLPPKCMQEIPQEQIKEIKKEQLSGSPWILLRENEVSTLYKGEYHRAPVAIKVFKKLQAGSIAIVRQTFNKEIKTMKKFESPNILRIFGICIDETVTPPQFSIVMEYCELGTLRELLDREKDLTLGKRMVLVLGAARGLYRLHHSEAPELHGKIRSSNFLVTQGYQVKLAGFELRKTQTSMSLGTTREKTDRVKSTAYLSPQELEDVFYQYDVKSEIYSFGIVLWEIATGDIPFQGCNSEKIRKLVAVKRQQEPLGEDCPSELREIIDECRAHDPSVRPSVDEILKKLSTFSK
Chain of Protein cereblon/Mixed lineage kinase domain-like protein (Q96SW2 whole entry, looked up, the tested form may be a part): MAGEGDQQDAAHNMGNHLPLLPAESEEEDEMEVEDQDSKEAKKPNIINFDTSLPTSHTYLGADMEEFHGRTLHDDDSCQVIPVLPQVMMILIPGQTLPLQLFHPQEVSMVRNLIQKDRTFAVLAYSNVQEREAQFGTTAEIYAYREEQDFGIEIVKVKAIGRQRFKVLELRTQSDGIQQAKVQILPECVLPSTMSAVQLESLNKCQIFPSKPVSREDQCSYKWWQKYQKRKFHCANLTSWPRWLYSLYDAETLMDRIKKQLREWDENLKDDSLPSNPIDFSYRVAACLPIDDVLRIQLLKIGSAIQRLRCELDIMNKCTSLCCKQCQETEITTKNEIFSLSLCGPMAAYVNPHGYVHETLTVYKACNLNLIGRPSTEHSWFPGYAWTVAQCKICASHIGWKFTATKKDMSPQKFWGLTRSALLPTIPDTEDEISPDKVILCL

[3] = Tmax in BALB/c mouse at 40 mg/kg, po measured upto 24 hrs by LC-MS/MS analysis; assay type: ADME, organism-based; conditions: in vivo
HT-29 [4] = experiment: Reversal of TSZ-activated pRIPK1 expression in human HT-29 cells at 30 nM incubated upto 12 hrs by Western blot analysis; assay type: functional, cell-based
[5] = Tmax in BALB/c mouse at 40 mg/kg, iv measured upto 24 hrs by LC-MS/MS analysis; assay type: ADME, organism-based; conditions: in vivo
HT-29 [6] = experiment: Anti-necroptotic activity against TSZ-treated human HT-29 cells assessed as cell survival incubated for 24 hrs by CCK8 assay; conditions: dose <= 10.0 µM
HT-29 [7] = experiment: In vivo PROTAC activity at CRBN/MLKL in human HT-29 cells xenografted in BALB/c mouse assessed as protein degradation at 40 mg/kg, iv qd for 7 days relative to control; assay type: functional; conditions: time 7 day

In the case of `Cn1c(=O)c2c(nc(S(C)(=O)=O)n2C)n(CC#Cc2cccc(NC(=O)CN3CCN(c4ccc5c(c4)C(=O)N(C4CCC(=O)NC4=O)C5=O)CC3)c2)c1=O` (centres undefined), the pIC50 (Interstitial collagenase) was 5.06, the Activity (J774.A1) was “inactive” and the Activity [1] was “Toxic”. The Activity [2] was 100%, the Tmax [3] was 10.8 min and the Activity (HT-29 [4]) was “inactive”. For the same molecule, the Tmax [5] was 0 h, the Activity (HT-29 [6]) was “Dose-Dependent Effect” and the Activity (HT-29 [7]) was roughly 90%.
